Read-outs that look alike come from different tables or passages of the source.
Assays:
hCA I = target: T1, hCA I (Homo sapiens, UniProt P00915); assay: stopped flow CO2 hydrase assay; assay type: biochemical; details: mean from 3 assays
T1 construct: made in house
Protocol: (§1) Carbonic anhydrase inhibition assay
The carbonic anhydrase catalyzed CO2 hydration actions for the quinazoline-based […]
(§2) Photophysics stopped-flow, as described previously. The enzymes are recombinant proteins prepared in our lab. Phenol red (at a concentration of 0.2 mM) has been used as indicator, working at the absorbance maximum of 557 nm, with 20 mM Hepes (pH 7.5) as buffer, and 20 mM Na2SO4 (for maintaining constant the ionic strength), following the initial rates of the CA- […]
1.7 to 17 mM for the determination of the kinetic parameters and inhibition constants. For each […]
(§3) initial velocity. The uncatalyzed rates were determined in the same manner and subtracted from the total observed rates. Stock solutions of inhibitor (0.1 mM) were prepared in distilled-deionized water and dilutions up to 0.01 nM were done thereafter with the assay buffer. Inhibitor and enzyme solutions were preincubated together for 15 min at room temperature prior to assay, in order to allow for the formation of the E-I complex. The inhibition constants were obtained by non-linear least-squares methods using PRISM 3 and the Cheng-Prusoff equation, and represent the mean from at least three different determinations.

hCA II = target: T2, hCA II (Homo sapiens, UniProt P00918); assay: stopped flow CO2 hydrase assay; assay type: biochemical; details: mean from 3 assays
T2 construct: made in house
Protocol: as §1
as §2, with “The carbonic anhydrase catalyzed CO2 hydration actions for the quinazoline-based carboxylic acid derivatives (6a-c, 7a-c and 8a-c) were assayed utilizing an instrument of Applied Photophysics” for “Photophysics”
as §3, with “1.7 to 17 mM for the determination of the kinetic parameters and inhibition constants. For each inhibitor at least six traces of the initial 5-10% of the reaction have been used for determining the initial” for “initial”

MOLT-4 = assay: NCI SRB assay; assay type: cell-based, human; details: for CC50: read-out: LC50 (the source's name)
EKVX = assay: NCI SRB assay; assay type: cell-based, human; details: for GI50 / LC50 (concentration killing 50% of cells) / TGI: 5-dose
HOP-62 = assay: NCI SRB assay; assay type: cell-based, human
HCC-2998 = assay: NCI SRB assay; assay type: cell-based, human; details: for CC50: read-out: LC50 (the source's name)
HT29 = assay: NCI SRB assay; assay type: cell-based, human
KM12 = assay: NCI SRB assay; assay type: cell-based, human
SF-539 = assay: NCI SRB assay; assay type: cell-based, human
SNB-19 = assay: NCI SRB assay; assay type: cell-based, human; details: for CC50: read-out: LC50 (the source's name)
U251 = assay: NCI SRB assay; assay type: cell-based, human; details: for CC50: read-out: LC50 (the source's name)
MALME-3M = assay: NCI SRB assay; assay type: cell-based, human; details: for CC50: read-out: LC50 (the source's name)
MDA-MB-435 = assay: NCI SRB assay; assay type: cell-based; details: Homo sapiens, MDA-MB-435
[1] = Homo sapiens, HT-29, HT29, 5-dose
[2] = Homo sapiens, KM12, KM 12, 5-dose
[3] = Homo sapiens, SNB-19, SNB-19, 5-dose
[4] = Homo sapiens, U-251, U251, 5-dose

T1 sequence (P00915 whole entry): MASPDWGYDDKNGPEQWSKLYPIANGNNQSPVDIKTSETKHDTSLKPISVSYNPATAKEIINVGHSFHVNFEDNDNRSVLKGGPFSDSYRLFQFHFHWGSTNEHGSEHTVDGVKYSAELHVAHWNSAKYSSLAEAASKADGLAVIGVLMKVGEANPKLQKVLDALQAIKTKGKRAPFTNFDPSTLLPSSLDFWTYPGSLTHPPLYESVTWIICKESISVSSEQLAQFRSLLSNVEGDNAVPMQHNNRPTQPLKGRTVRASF

Cc1ccc(-c2nc(Nc3ccccc3C(=O)O)c3ccccc3n2)cc1 [6b, 2-((2-(p-Tolyl)quinazolin-4-yl)amino)benzoic acid]
Ki (hCA I): > 100 µM
Ki (hCA II): 48.2 µM
CC50 (MOLT-4; Homo sapiens, MOLT-4, MOLT-4, 5-dose): > 100 µM
GI50 (MOLT-4; Homo sapiens, MOLT-4, 5-dose): 11.7 µM
GI% (MOLT-4; MOLT-4, 10 μM): 89%
Growth Percent (MOLT-4; MOLT-4, 1.00E-5 Molar): 10.91%
TGI (MOLT-4; MOLT-4, 5-dose): <100 µM
TGI (MOLT-4; MOLT-4, 5-dose, listed as D - 835857): > 1.00E-4 Molar
CC50 (MOLT-4; MOLT-4, 5-dose): < 100 µM
GI% (EKVX; 10 μM): 87%
Growth Percent (EKVX; 1.00E-5 Molar): 13.07%
GI50 (EKVX): 8.9 µM
LC50 (concentration killing 50% of cells) (EKVX): < 100 µM
TGI (EKVX): 56.2 µM
TGI (EKVX; listed as D - 835857): 5.62E-5 Molar
GI50 (EKVX; Homo sapiens): 8.89 µM
LC50 (concentration killing 50% of cells) (EKVX; Homo sapiens): > 100 µM
GI% (HOP-62; HOP-62, 10 μM): 72%
Growth Percent (HOP-62; HOP-62, 1.00E-5 Molar): 28.29%
LC50 (HOP-62; HOP-62, 5-dose): < 100 µM
TGI (HOP-62; HOP-62, 5-dose): 33.7 µM
TGI (HOP-62; HOP-62, 5-dose, listed as D - 835857): 3.37E-5 Molar
LC50 (HOP-62; Homo sapiens, HOP-62, HOP-62, 5-dose): > 100 µM
GI50 (HOP-62; Homo sapiens, HOP-62, 5-dose): 10.8 µM
GI% (HCC-2998; HCC-2998, 10 μM): 95%
Growth Percent (HCC-2998; HCC-2998, 1.00E-5 Molar): 5.44%
TGI (HCC-2998; HCC-2998, 5-dose): 36.0 µM
TGI (HCC-2998; HCC-2998, 5-dose, listed as D - 835857): 3.60E-5 Molar
CC50 (HCC-2998; HCC-2998, 5-dose): < 100 µM
CC50 (HCC-2998; Homo sapiens, HCC 2998, HCC-2998, 5-dose): > 100 µM
GI50 (HCC-2998; Homo sapiens, HCC-2998, 5-dose): 12.4 µM
GI% (HT29; HT29, 10 μM): 82%
Growth Percent (HT29; HT29, 1.00E-5 Molar): 17.79%
LC50 (50% lethal concentration) (HT29; HT29, 5-dose): < 100 µM
TGI (HT29; HT29, 5-dose): <100 µM
TGI (HT29; HT29, 5-dose, listed as D - 835857): > 1.00E-4 Molar
GI50 (HT29; [1]): 17.9 µM
LC50 (50% lethal concentration) (HT29; [1]): > 100 µM
LC50 (KM12; [2]): < 100 µM
LC50 (KM12; Homo sapiens, KM12, KM12, 5-dose): > 100 µM
GI50 (KM12; [2]): 13.7 µM
GI% (KM12; KM12, 10 μM): 92%
Growth Percent (KM12; KM12, 1.00E-5 Molar): 8.37%
TGI (KM12; KM 12, 5-dose): 81.2 µM
TGI (KM12; KM12, 5-dose): 8.12E-5 Molar
GI50 (SF-539; Homo sapiens, SF-539, 5-dose): 11.9 µM
CC50 (SF-539; Homo sapiens, SF-539, 5-dose, read-out: LC50 (the source's name)): 67.2 µM
GI% (SF-539; SF-539, 10 μM): 79%
Growth Percent (SF-539; SF-539, 1.00E-5 Molar): 21.26%
TGI (SF-539; SF-539, 5-dose): 28.3 µM
TGI (SF-539; SF-539, 5-dose, listed as D - 835857): 2.83E-5 Molar
GI50 (SNB-19; [3]): 8.09 µM
CC50 (SNB-19; [3]): > 100 µM
GI% (SNB-19; SNB-19, 10 μM): 91%
Growth Percent (SNB-19; SNB-19, 1.00E-5 Molar): 8.82%
GI50 (SNB-19; SNB-19, 5-dose): 8.1 µM
TGI (SNB-19; SNB-19, 5-dose): 81.7 µM
TGI (SNB-19; SNB-19, 5-dose, listed as D - 835857): 8.17E-5 Molar
CC50 (SNB-19; SNB-19, 5-dose): < 100 µM
GI50 (U251; [4]): 5.58 µM
CC50 (U251; [4]): > 100 µM
GI% (U251; U251, 10 μM): 82%
Growth Percent (U251; U251, 1.00E-5 Molar): 18.45%
GI50 (U251; U251, 5-dose): 5.6 µM
TGI (U251; U251, 5-dose): 35.0 µM
TGI (U251; U251, 5-dose, listed as D - 835857): 3.50E-5 Molar
CC50 (U251; U251, 5-dose): < 100 µM
GI% (MALME-3M; 10 μM): 80%
Growth Percent (MALME-3M; 1.00E-5 Molar): 19.56%
TGI (MALME-3M; 5-dose): 64.5 µM
TGI (MALME-3M; 5-dose, listed as D - 835857): 6.45E-5 Molar
CC50 (MALME-3M; 5-dose): < 100 µM
GI50 (MALME-3M; Homo sapiens, 5-dose): 15.6 µM
CC50 (MALME-3M; Homo sapiens, Malme-3M, 5-dose): > 100 µM
GI50 (MDA-MB-435): 13.9 µM
